Data taken from US20230040770A1, “HETEROCYCLIC COMPOUND AND USE THEREOF” (TAKEDA PHARMACEUTICAL COMPANY LIMITED, priority 2019, published 2023).

Molecular target: T1, human orexin type 2 receptor (Homo sapiens, UniProt O43614)
T1 construct: expressed in transfected cells
T1 sequence (O43614 1-444): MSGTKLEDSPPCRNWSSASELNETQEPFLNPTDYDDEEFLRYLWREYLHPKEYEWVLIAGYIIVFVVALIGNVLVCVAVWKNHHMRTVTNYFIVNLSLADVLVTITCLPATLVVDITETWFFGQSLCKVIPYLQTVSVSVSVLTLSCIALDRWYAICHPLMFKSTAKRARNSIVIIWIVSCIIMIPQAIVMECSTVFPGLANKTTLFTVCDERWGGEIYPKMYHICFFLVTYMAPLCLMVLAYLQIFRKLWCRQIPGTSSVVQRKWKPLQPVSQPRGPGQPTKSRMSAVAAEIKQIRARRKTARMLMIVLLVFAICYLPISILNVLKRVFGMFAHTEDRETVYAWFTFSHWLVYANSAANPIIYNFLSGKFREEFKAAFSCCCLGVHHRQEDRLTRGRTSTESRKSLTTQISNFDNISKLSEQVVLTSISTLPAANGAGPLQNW
Assay: Measurement of orexin type 2 receptor agonist activity (calcium indicator fluorescence, CHO cells forcibly expressing human OX2 receptor)
Assay type: cell-based
Conditions: compound at 3 μM; 0% = DMSO, 100% = orexin A (human) 10 nM
Summary of the method: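 CHO-dhfr cells stably expressing human OX2R, loaded with Fluo-4 AM (30 min 37 °C, then 30 min RT), then given test compound. Calcium fluorescence read by FDSS over ~2 min. Activity (%) scaled from DMSO (0%) to 10 nM final orexin A (100%).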

Row | Structure (SMILES) | OX2R agonist activity (3 μM, %) [%]
1 | CCS(=O)(=O)N[C@H]1[C@@H](F)CN(C(=O)C2CCO2)[C@H]1Cc1cccc(-c2cccc(F)c2)c1F (stereo partly drawn) [Example 217, N-[(2S,3R,4S)-2-[(2,3′-difluoro[1,1′-biphenyl]-3-yl)methyl]-4-fluoro-1-(oxetane-2-carbonyl)pyrrolidin-3-yl]ethanesulfonamide] | 96
2 | CCS(=O)(=O)N[C@H]1[C@@H](F)CN(C(=O)C(C)(C)O)[C@H]1Cc1cccc(-c2cc(F)cc(F)c2)c1F [Example 220, N-{(2S,3R,4S)-4-fluoro-1-(2-hydroxy-2-methylpropanoyl)-2-[(2,3′,5′-trifluoro[1,1′-biphenyl]-3-yl)methyl]pyrrolidin-3-yl}ethanesulfonamide] | 90
3 | CCS(=O)(=O)N[C@H]1[C@@H](F)CN(C(=O)C(C)(C)O)[C@H]1Cc1cccc(-c2cccc(F)c2F)c1F [Example 222, N-{(2S,3R,4S)-4-fluoro-1-(2-hydroxy-2-methylpropanoyl)-2-[(2,2′,3′-trifluoro[1,1′-biphenyl]-3-yl)methyl]pyrrolidin-3-yl}ethanesulfonamide] | 97
4 | CCS(=O)(=O)N[C@@H]1[C@H](Cc2cccc(-c3cccc(F)c3)c2F)N(C(=O)[C@H]2C[C@@H](F)C2)CC1(F)F [Example 226, N-[(2S,3R)-2-[(2,3′-difluoro[1,1′-biphenyl]-3-yl)methyl]-4,4-difluoro-1-((1s,3R)-3-fluorocyclobutane-1-carbonyl)pyrrolidin-3-yl]ethanesulfonamide] | 100
5 | CCS(=O)(=O)N[C@@H]1[C@H](Cc2cccc(-c3ccccc3)c2F)N(C(=O)N2CCC2)CC1(F)F [Example 228, N-{(2S,3R)-1-(azetidine-1-carbonyl)-4,4-difluoro-2-[(2-fluoro[1,1′-biphenyl]-3-yl)methyl]pyrrolidin-3-yl}ethanesulfonamide] | 99
6 | CS(=O)(=O)N[C@H]1[C@@H](F)CN(C(=O)C23CC(C2)C3)[C@H]1Cc1cccc(-c2cccc(F)c2)c1F [Example 231, N-{(2S,3R,4S)-1-(bicyclo[1.1.1]pentane-1-carbonyl)-2-[(2,3′-difluoro[1,1′-biphenyl]-3-yl)methyl]-4-fluoropyrrolidin-3-yl}methanesulfonamide] | 95
7 | CCS(=O)(=O)N[C@H]1[C@@H](F)CN(C(=O)C2CC2)[C@H]1Cc1cccc(-c2cc(F)ccc2F)c1F [Example 238, N-{(2S,3R,4S)-1-(cyclopropanecarbonyl)-4-fluoro-2-[(2,2′,5′-trifluoro[1,1′-biphenyl]-3-yl)methyl]pyrrolidin-3-yl}ethanesulfonamide] | 98
8 | CCS(=O)(=O)N[C@H]1[C@@H](F)CN(C(=O)C2CC2)[C@H]1Cc1cccc(-c2ccccc2)c1F [Example 239, N-{(2S,3R,4S)-1-(cyclopropanecarbonyl)-4-fluoro-2-[(2-fluoro[1,1′-biphenyl]-3-yl)methyl]pyrrolidin-3-yl}ethanesulfonamide] | 102
9 | CS(=O)(=O)N[C@@H]1[C@H](Cc2cccc(-c3cc(F)cc(Cl)c3)c2F)N(C(=O)C2CC2)CC1(F)F [Example 245, N-[(2S,3R)-2-[(3′-chloro-2,5′-difluoro[1,1′-biphenyl]-3-yl)methyl]-1-(cyclopropanecarbonyl)-4,4-difluoropyrrolidin-3-yl]methanesulfonamide] | 94
10 | CCS(=O)(=O)N[C@@H]1[C@H](Cc2cccc(-c3cc(F)cc(Cl)c3)c2F)N(C(=O)C2CC2)CC1(F)F [Example 248, N-[(2S,3R)-2-[(3′-chloro-2,5′-difluoro[1,1′-biphenyl]-3-yl)methyl]-1-(cyclopropanecarbonyl)-4,4-difluoropyrrolidin-3-yl]ethanesulfonamide] | 90
11 | CCS(=O)(=O)N[C@@H]1[C@H](Cc2cccc(-c3cccc(Cl)c3F)c2F)N(C(=O)C2CC2)CC1(F)F [Example 249, N-[(2S,3R)-2-[(3′-chloro-2,2′-difluoro[1,1′-biphenyl]-3-yl)methyl]-1-(cyclopropanecarbonyl)-4,4-difluoropyrrolidin-3-yl]ethanesulfonamide] | 90
